Values quoted from earlier work in patent US7560120B2, “Vehicles for delivery of biologically active substances” (University of Tennessee Research Foundation, priority 2002, dated 2009).
Counter-ions that a name gives are not always drawn. Like-named read-outs stand apart in the source and are kept apart here.

What was measured:
Rat [1] = details: oral
[2] = not given; remark: listed apart in the source
Rat [3] = details: in vivo, sc

CCCCCCOC(=O)CC(CC(=O)OCCCCCC)(OC(C)=O)C(=O)OCCCCCC [A-6, Acetyltri-n-hexyl Citrate]
Viscosity (cps) at 25° C.: 36 cps
LD50 (Rat [1]): 20000 mg/kg

CCCCOC(=O)CC(CC(=O)OCCCC)(OC(C)=O)C(=O)OCCCC [ATBC, Acetyl Tributyl Citrate]
Viscosity (cps) at 25° C.: 33 cps
Water Solubility at 25° C. (g/100 ml) [2]: <0.1 g/100 ml
LD50 (Rat [1]): >25000 mg/kg

CCOC(=O)CC(CC(=O)OCC)(OC(C)=O)C(=O)OCC [ATEC, acetyl triethyl citrate]
Viscosity (cps) at 25° C.: 54 cps
LD50 (Rat [1]): 7000 mg/kg

CCCCCCOC(=O)CC(CC(=O)OCCCCCC)(OC(=O)CCC)C(=O)OCCCCCC [B-6, Butyryltri-n-hexyl Citrate]
Viscosity (cps) at 25° C.: 28 cps
LD50 (Rat [1]): 2000 mg/kg

CCCCOC(=O)CC(O)(CC(=O)OCCCC)C(=O)OCCCC [TBC, Tributyl Citrate]
Viscosity (cps) at 25° C.: 32 cps
Water Solubility at 25° C. (g/100 ml) [2]: <0.1 g/100 ml
LD50 (Rat [1]): >30000 mg/kg

CCOC(=O)CC(O)(CC(=O)OCC)C(=O)OCC [TEC, triethyl citrate]
Viscosity (cps) at 25° C.: 35 cps
LD50 (Rat [3]): 6600 mg/kg
